In brackets after ≈: the same amount, converted by molar mass. Blank lines part the entries; values can stand above or below the molecule they belong to.
Columns and labels:
Type in all cases: functional
[1] = system: Bacillus subtilis; experiment: Antibacterial activity against Bacillus subtilis at 100 ug/ml after 24 hrs by agar well diffusion method; conditions: read-out: DIZ
[2] = system: Aspergillus flavus; experiment: Antifungal activity against Aspergillus flavus after 72 hrs by agar well diffusion method
[3] = system: Fusarium oxysporum; experiment: Antifungal activity against Fusarium oxysporum at 50 ug/ml after 72 hrs by agar well diffusion method; conditions: read-out: DIZ
[4] = system: Staphylococcus aureus; experiment: Antibacterial activity against Staphylococcus aureus ATCC 6538 at 50 ug/ml after 24 hrs by agar well diffusion method; conditions: ATCC 6538, 24 h, read-out: DIZ
[5] = system: Rhizoctonia solani; experiment: Antifungal activity against Rhizoctonia solani after 72 hrs by agar well diffusion method
[6] = system: Aspergillus niger; experiment: Antifungal activity against Aspergillus niger after 72 hrs by agar well diffusion method
[7] = system: Klebsiella pneumoniae; experiment: Antibacterial activity against Klebsiella pneumoniae after 24 hrs by agar well diffusion method
[8] = system: Aspergillus flavus; experiment: Antifungal activity against Aspergillus flavus at 200 ug/ml after 72 hrs by agar well diffusion method; conditions: read-out: DIZ
[9] = system: Fusarium oxysporum; experiment: Antifungal activity against Fusarium oxysporum at 500 ug/ml after 72 hrs by agar well diffusion method; conditions: read-out: DIZ
[10] = system: Escherichia coli; experiment: Antibacterial activity against Escherichia coli ATCC 8739 at 300 ug/ml after 24 hrs by agar well diffusion method; conditions: ATCC 8739, 24 h, read-out: DIZ
[11] = system: Aspergillus niger; experiment: Antifungal activity against Aspergillus niger at 50 ug/ml after 72 hrs by agar well diffusion method; conditions: read-out: DIZ
[12] = system: Bacillus subtilis; experiment: Antibacterial activity against Bacillus subtilis at 50 ug/ml after 24 hrs by agar well diffusion method; conditions: read-out: DIZ
[13] = system: Escherichia coli; experiment: Antibacterial activity against Escherichia coli ATCC 8739 at 50 ug/ml after 24 hrs by agar well diffusion method; conditions: ATCC 8739, 24 h, read-out: DIZ
[14] = system: Fusarium oxysporum; experiment: Antifungal activity against Fusarium oxysporum at 300 ug/ml after 72 hrs by agar well diffusion method; conditions: read-out: DIZ
[15] = system: Rhizoctonia solani; experiment: Antifungal activity against Rhizoctonia solani at 100 ug/ml after 72 hrs by agar well diffusion method; conditions: read-out: DIZ
[16] = system: Aspergillus flavus; experiment: Antifungal activity against Aspergillus flavus at 500 ug/ml after 72 hrs by agar well diffusion method; conditions: read-out: DIZ
[17] = system: Rhizoctonia solani; experiment: Antifungal activity against Rhizoctonia solani at 500 ug/ml after 72 hrs by agar well diffusion method; conditions: read-out: DIZ
[18] = system: Escherichia coli; experiment: Antibacterial activity against Escherichia coli ATCC 8739 at 100 ug/ml after 24 hrs by agar well diffusion method; conditions: ATCC 8739, 24 h, read-out: DIZ
[19] = system: Fusarium oxysporum; experiment: Antifungal activity against Fusarium oxysporum at 200 ug/ml after 72 hrs by agar well diffusion method; conditions: read-out: DIZ
[20] = system: Bacillus subtilis; experiment: Antibacterial activity against Bacillus subtilis at 300 ug/ml after 24 hrs by agar well diffusion method; conditions: read-out: DIZ
[21] = system: Escherichia coli; experiment: Antibacterial activity against Escherichia coli ATCC 8739 after 24 hrs by agar well diffusion method; conditions: ATCC 8739, 24 h
[22] = system: Aspergillus flavus; experiment: Antifungal activity against Aspergillus flavus at 100 ug/ml after 72 hrs by agar well diffusion method; conditions: read-out: DIZ
[23] = system: Klebsiella pneumoniae; experiment: Antibacterial activity against Klebsiella pneumoniae at 500 ug/ml after 24 hrs by agar well diffusion method; conditions: read-out: DIZ
[24] = system: Bacillus subtilis; experiment: Antibacterial activity against Bacillus subtilis at 500 ug/ml after 24 hrs by agar well diffusion method; conditions: read-out: DIZ
[25] = system: Klebsiella pneumoniae; experiment: Antibacterial activity against Klebsiella pneumoniae at 300 ug/ml after 24 hrs by agar well diffusion method; conditions: read-out: DIZ
[26] = system: Aspergillus flavus; experiment: Antifungal activity against Aspergillus flavus at 50 ug/ml after 72 hrs by agar well diffusion method; conditions: read-out: DIZ
[27] = system: Rhizoctonia solani; experiment: Antifungal activity against Rhizoctonia solani at 200 ug/ml after 72 hrs by agar well diffusion method; conditions: read-out: DIZ
[28] = system: Staphylococcus aureus; experiment: Antibacterial activity against Staphylococcus aureus ATCC 6538 at 100 ug/ml after 24 hrs by agar well diffusion method; conditions: ATCC 6538, 24 h, read-out: DIZ
[29] = system: Aspergillus niger; experiment: Antifungal activity against Aspergillus niger at 300 ug/ml after 72 hrs by agar well diffusion method; conditions: read-out: DIZ
[30] = system: Rhizoctonia solani; experiment: Antifungal activity against Rhizoctonia solani at 300 ug/ml after 72 hrs by agar well diffusion method; conditions: read-out: DIZ
[31] = system: Aspergillus niger; experiment: Antifungal activity against Aspergillus niger at 500 ug/ml after 72 hrs by agar well diffusion method; conditions: read-out: DIZ
[32] = system: Staphylococcus aureus; experiment: Antibacterial activity against Staphylococcus aureus ATCC 6538 after 24 hrs by agar well diffusion method; conditions: ATCC 6538, 24 h
[33] = system: Escherichia coli; experiment: Antibacterial activity against Escherichia coli ATCC 8739 at 200 ug/ml after 24 hrs by agar well diffusion method; conditions: ATCC 8739, 24 h, read-out: DIZ
[34] = system: Staphylococcus aureus; experiment: Antibacterial activity against Staphylococcus aureus ATCC 6538 at 200 ug/ml after 24 hrs by agar well diffusion method; conditions: ATCC 6538, 24 h, read-out: DIZ
[35] = system: Escherichia coli; experiment: Antibacterial activity against Escherichia coli ATCC 8739 at 500 ug/ml after 24 hrs by agar well diffusion method; conditions: ATCC 8739, 24 h, read-out: DIZ
[36] = system: Fusarium oxysporum; experiment: Antifungal activity against Fusarium oxysporum after 72 hrs by agar well diffusion method
[37] = system: Aspergillus niger; experiment: Antifungal activity against Aspergillus niger at 100 ug/ml after 72 hrs by agar well diffusion method; conditions: read-out: DIZ
[38] = system: Staphylococcus aureus; experiment: Antibacterial activity against Staphylococcus aureus ATCC 6538 at 300 ug/ml after 24 hrs by agar well diffusion method; conditions: ATCC 6538, 24 h, read-out: DIZ
[39] = system: Bacillus subtilis; experiment: Antibacterial activity against Bacillus subtilis after 24 hrs by agar well diffusion method
[40] = system: Aspergillus niger; experiment: Antifungal activity against Aspergillus niger at 200 ug/ml after 72 hrs by agar well diffusion method; conditions: read-out: DIZ
[41] = system: Rhizoctonia solani; experiment: Antifungal activity against Rhizoctonia solani at 50 ug/ml after 72 hrs by agar well diffusion method; conditions: read-out: DIZ
[42] = system: Klebsiella pneumoniae; experiment: Antibacterial activity against Klebsiella pneumoniae at 200 ug/ml after 24 hrs by agar well diffusion method; conditions: read-out: DIZ
[43] = system: Klebsiella pneumoniae; experiment: Antibacterial activity against Klebsiella pneumoniae at 100 ug/ml after 24 hrs by agar well diffusion method; conditions: read-out: DIZ
[44] = system: Bacillus subtilis; experiment: Antibacterial activity against Bacillus subtilis at 200 ug/ml after 24 hrs by agar well diffusion method; conditions: read-out: DIZ
[45] = system: Staphylococcus aureus; experiment: Antibacterial activity against Staphylococcus aureus ATCC 6538 at 500 ug/ml after 24 hrs by agar well diffusion method; conditions: ATCC 6538, 24 h, read-out: DIZ
[46] = system: Fusarium oxysporum; experiment: Antifungal activity against Fusarium oxysporum at 100 ug/ml after 72 hrs by agar well diffusion method; conditions: read-out: DIZ
[47] = system: Klebsiella pneumoniae; experiment: Antibacterial activity against Klebsiella pneumoniae at 50 ug/ml after 24 hrs by agar well diffusion method; conditions: read-out: DIZ
[48] = system: Aspergillus flavus; experiment: Antifungal activity against Aspergillus flavus at 300 ug/ml after 72 hrs by agar well diffusion method; conditions: read-out: DIZ

- MIC [2]: 35 µg/mL (≈ 100 µM)
- MIC [5]: 25 µg/mL (≈ 71.4 µM)
- MIC [6]: 30 µg/mL (≈ 85.7 µM)
- MIC [7]: 10 µg/mL (≈ 28.6 µM)
- MIC [21]: 10 µg/mL (≈ 28.6 µM)
- MIC [32]: 20 µg/mL (≈ 57.1 µM)
- MIC [36]: 25 µg/mL (≈ 71.4 µM)
- MIC [39]: 20 µg/mL (≈ 57.1 µM)
Structure (SMILES): CC1(C)OC(=O)C(=Cc2c[nH]c3ccc(Br)cc23)C(=O)O1
- zone of inhibition at 100 µg/mL [1]: 11.5 mm
- zone of inhibition at 50 µg/mL [3]: 10 mm
- zone of inhibition at 50 µg/mL [4]: 8 mm
- zone of inhibition at 200 µg/mL [8]: 13 mm
- zone of inhibition at 500 µg/mL [9]: 31 mm
- zone of inhibition at 300 µg/mL [10]: 23 mm
- zone of inhibition at 50 µg/mL [11]: 7 mm
- zone of inhibition at 50 µg/mL [12]: 7 mm
- zone of inhibition at 50 µg/mL [13]: 10.4 mm
- zone of inhibition at 300 µg/mL [14]: 21 mm
- zone of inhibition at 100 µg/mL [15]: 15 mm
- zone of inhibition at 500 µg/mL [16]: 24 mm
- zone of inhibition at 500 µg/mL [17]: 32 mm
- zone of inhibition at 100 µg/mL [18]: 15.5 mm
- zone of inhibition at 200 µg/mL [19]: 17 mm
- zone of inhibition at 300 µg/mL [20]: 17 mm
- zone of inhibition at 100 µg/mL [22]: 10 mm
- zone of inhibition at 500 µg/mL [23]: 34 mm
- zone of inhibition at 500 µg/mL [24]: 25 mm
- zone of inhibition at 300 µg/mL [25]: 25 mm
- zone of inhibition at 50 µg/mL [26]: 5 mm
- zone of inhibition at 200 µg/mL [27]: 19 mm
- zone of inhibition at 100 µg/mL [28]: 12 mm
- zone of inhibition at 300 µg/mL [29]: 19 mm
- zone of inhibition at 300 µg/mL [30]: 24 mm
- zone of inhibition at 500 µg/mL [31]: 26 mm
- zone of inhibition at 200 µg/mL [33]: 16 mm
- zone of inhibition at 200 µg/mL [34]: 15 mm
- zone of inhibition at 500 µg/mL [35]: 32 mm
- zone of inhibition at 100 µg/mL [37]: 11 mm
- zone of inhibition at 300 µg/mL [38]: 19 mm
- zone of inhibition at 200 µg/mL [40]: 15 mm
- zone of inhibition at 50 µg/mL [41]: 10 mm
- zone of inhibition at 200 µg/mL [42]: 20 mm
- zone of inhibition at 100 µg/mL [43]: 16 mm
- zone of inhibition at 200 µg/mL [44]: 13 mm
- zone of inhibition at 500 µg/mL [45]: 27 mm
- zone of inhibition at 100 µg/mL [46]: 14 mm
- zone of inhibition at 50 µg/mL [47]: 11 mm
- zone of inhibition at 300 µg/mL [48]: 17 mm

- MIC [2]: 40 µg/mL (≈ 121 µM)
- MIC [5]: 35 µg/mL (≈ 106 µM)
- MIC [6]: 40 µg/mL (≈ 121 µM)
- MIC [7]: 15 µg/mL (≈ 45.5 µM)
- MIC [21]: 15 µg/mL (≈ 45.5 µM)
- MIC [32]: 25 µg/mL (≈ 75.9 µM)
- MIC [36]: 35 µg/mL (≈ 106 µM)
- MIC [39]: 30 µg/mL (≈ 91.1 µM)
Structure (SMILES): CCn1cc(C=C2C(=O)OC(C)(C)OC2=O)c2cc(OC)ccc21
- zone of inhibition at 100 µg/mL [1]: 8 mm
- zone of inhibition at 50 µg/mL [3]: 7 mm
- zone of inhibition at 50 µg/mL [4]: 4 mm
- zone of inhibition at 200 µg/mL [8]: 12 mm
- zone of inhibition at 500 µg/mL [9]: 29 mm
- zone of inhibition at 300 µg/mL [10]: 16 mm
- zone of inhibition at 50 µg/mL [11]: 6 mm
- zone of inhibition at 50 µg/mL [12]: 4 mm
- zone of inhibition at 50 µg/mL [13]: 6 mm
- zone of inhibition at 300 µg/mL [14]: 21 mm
- zone of inhibition at 100 µg/mL [15]: 12 mm
- zone of inhibition at 500 µg/mL [16]: 23 mm
- zone of inhibition at 500 µg/mL [17]: 29 mm
- zone of inhibition at 100 µg/mL [18]: 10 mm
- zone of inhibition at 200 µg/mL [19]: 16 mm
- zone of inhibition at 300 µg/mL [20]: 13 mm
- zone of inhibition at 100 µg/mL [22]: 9 mm
- zone of inhibition at 500 µg/mL [23]: 31 mm
- zone of inhibition at 500 µg/mL [24]: 21 mm
- zone of inhibition at 300 µg/mL [25]: 20 mm
- zone of inhibition at 50 µg/mL [26]: 4 mm
- zone of inhibition at 200 µg/mL [27]: 16 mm
- zone of inhibition at 100 µg/mL [28]: 9 mm
- zone of inhibition at 300 µg/mL [29]: 18 mm
- zone of inhibition at 300 µg/mL [30]: 21 mm
- zone of inhibition at 500 µg/mL [31]: 25 mm
- zone of inhibition at 200 µg/mL [33]: 13 mm
- zone of inhibition at 200 µg/mL [34]: 11 mm
- zone of inhibition at 500 µg/mL [35]: 26 mm
- zone of inhibition at 100 µg/mL [37]: 10 mm
- zone of inhibition at 300 µg/mL [38]: 14 mm
- zone of inhibition at 200 µg/mL [40]: 14 mm
- zone of inhibition at 50 µg/mL [41]: 7 mm
- zone of inhibition at 200 µg/mL [42]: 15 mm
- zone of inhibition at 100 µg/mL [43]: 13 mm
- zone of inhibition at 200 µg/mL [44]: 10 mm
- zone of inhibition at 500 µg/mL [45]: 22 mm
- zone of inhibition at 100 µg/mL [46]: 12 mm
- zone of inhibition at 50 µg/mL [47]: 8 mm
- zone of inhibition at 300 µg/mL [48]: 15 mm

— ChEMBL document CHEMBL2429768, “Eco-friendly synthesis and antimicrobial activities of substituted-5-(1H-indol-3-yl)methylene)-2,2-dimethyl-1,3-dioxane-4,6-dione derivatives” (2013)
